# Measurements as given in ChEMBL document CHEMBL3580619, “The antimalarial drug atovaquone binds to saposin B with comparable affinity to coenzyme Q10” (Medchemcomm, 2014).
# Assays:
# Albumin [1] = target: T1, Albumin (Homo sapiens, UniProt P02768); assay: Ratio of Ka for human serum albumin by ITC method to Ka for human serum albumin by CD spectroscopy; format: ADME
# [2] = Inhibition of coenzyme Q10 binding to cytochrome bc1 complex (unknown origin)
# [3] = Protein binding in human plasma; format: ADME, cell-free; conditions: read-out: PPB
# Albumin [4] = target: T1, Albumin; assay: Binding affinity to human serum albumin by CD spectroscopy; format: ADME; conditions: isolated protein
# Prosaposin [5] = target: T2, Prosaposin (Homo sapiens, UniProt P07602); assay: Binding affinity to human saposin B expressed in Escherichia coli BL21 Gold (DE3) at 150 uM using 15 to 20 uM sapB and 50 mM MES and 10% DMF at pH 5.5 and 25 degC by ITC method; format: ADME; conditions: pH 5.5, 150 µM
# T2 sequence (P07602 whole entry): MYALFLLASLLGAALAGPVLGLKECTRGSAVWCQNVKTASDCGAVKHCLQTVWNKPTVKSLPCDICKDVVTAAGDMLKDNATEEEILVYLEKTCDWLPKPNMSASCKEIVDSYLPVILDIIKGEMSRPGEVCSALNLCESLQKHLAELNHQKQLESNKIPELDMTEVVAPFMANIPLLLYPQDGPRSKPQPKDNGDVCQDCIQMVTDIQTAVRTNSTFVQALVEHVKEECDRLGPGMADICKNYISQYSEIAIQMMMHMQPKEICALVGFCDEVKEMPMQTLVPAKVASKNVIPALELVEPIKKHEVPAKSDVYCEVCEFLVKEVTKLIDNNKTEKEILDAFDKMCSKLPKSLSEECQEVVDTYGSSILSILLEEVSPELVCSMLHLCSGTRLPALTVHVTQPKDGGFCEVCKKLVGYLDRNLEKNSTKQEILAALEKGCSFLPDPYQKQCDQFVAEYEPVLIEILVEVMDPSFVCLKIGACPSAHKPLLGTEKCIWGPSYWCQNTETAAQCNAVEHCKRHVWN
# Prosaposin [6] = target: T2, Prosaposin; assay: Binding affinity to human saposin B expressed in Escherichia coli BL21 Gold (DE3) at 150 um using 20 uM SapB and 20 mM phosphate and 30% DMF at pH 7.4 and 25 degC by ITC method; format: ADME; conditions: pH 7.4, 150 µM
# Albumin [7] = target: T1, Albumin; assay: Binding affinity to human serum albumin at 150 uM using 20 uM HSA and 20 mM phosphate and 30% DMF at pH 7.4 and 25 degC by ITC method; format: ADME; conditions: isolated protein, pH 7.4, 150 µM
# Albumin [8] = target: T1, Albumin; assay: Binding affinity to human serum albumin at 845 uM using 33.8 uM HSA and 14 mM phosphate and 30% DMF at pH 7.4 and 25 degC by fluorescence spectroscopy; format: ADME; conditions: isolated protein, pH 7.4, 845 µM
# Albumin [9] = target: T1, Albumin; assay: Binding affinity to human serum albumin in Ringer buffer and 2 to 7% v/v ethanol at pH 7.4 and 37 degC by CD spectroscopy; format: ADME; conditions: isolated protein
# Prosaposin [10] = target: T2, Prosaposin; assay: Binding affinity to human saposin B expressed in Escherichia coli BL21 Gold (DE3) at 120 uM using 15 uM sapB and 50 mM MES and 4% THF at pH 5.5 and 25 degC by ITC method; format: ADME; conditions: pH 5.5, 120 µM
# Prosaposin [11] = target: T2, Prosaposin; assay: Binding affinity to human saposin B expressed in Escherichia coli BL21 Gold (DE3) at 154 uM using 25 to 27 uM sapB and 50 mM MES and 50% DMF at pH 5.5 and 25 degC by ITC method; format: ADME; conditions: pH 5.5, 154 µM
# T1 sequence (P02768 whole entry): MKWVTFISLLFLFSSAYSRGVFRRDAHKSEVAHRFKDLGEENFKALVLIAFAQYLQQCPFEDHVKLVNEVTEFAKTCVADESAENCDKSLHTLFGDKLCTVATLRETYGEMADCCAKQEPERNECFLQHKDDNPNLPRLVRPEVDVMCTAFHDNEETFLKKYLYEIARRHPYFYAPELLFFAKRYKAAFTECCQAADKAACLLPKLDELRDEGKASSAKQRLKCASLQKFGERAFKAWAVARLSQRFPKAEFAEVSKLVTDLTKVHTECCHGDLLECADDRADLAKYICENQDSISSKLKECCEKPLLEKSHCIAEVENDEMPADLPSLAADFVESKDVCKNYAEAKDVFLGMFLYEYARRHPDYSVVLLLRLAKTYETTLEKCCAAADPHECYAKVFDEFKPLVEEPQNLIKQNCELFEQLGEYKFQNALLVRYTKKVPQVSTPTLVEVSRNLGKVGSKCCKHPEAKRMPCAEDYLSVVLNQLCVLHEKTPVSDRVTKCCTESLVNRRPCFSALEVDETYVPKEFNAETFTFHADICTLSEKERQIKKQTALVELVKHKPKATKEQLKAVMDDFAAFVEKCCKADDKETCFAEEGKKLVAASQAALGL
Structure (SMILES),Ratio (Albumin [1]),Ki [2] [nM],fraction unbound [3],Ka (Albumin [4]) [×10⁶ /M],K (Prosaposin [5]) [×10⁷ /M],K (Prosaposin [6]) [×10⁴ /M],K (Albumin [7]) [×10⁵ /M],Ka (Albumin [8]) [×10⁴ /M],K (Albumin [9]) [×10⁶ /M],K (Prosaposin [10]) [×10⁷ /M],K (Prosaposin [11]) [×10⁷ /M]
O=C1C(O)=C([C@H]2CC[C@H](c3ccc(Cl)cc3)CC2)C(=O)c2ccccc21 [ATOVAQUONE],10,9,< 0.005,2,1.11,8.02,1.06,7.15,1,,
COC1=C(OC)C(=O)C(C/C=C(\C)CC/C=C(\C)CC/C=C(\C)CC/C=C(\C)CC/C=C(\C)CC/C=C(\C)CC/C=C(\C)CC/C=C(\C)CC/C=C(\C)CCC=C(C)C)=C(C)C1=O [UBIDECARENONE],,,,,,,,,,2.41,1.7
